Test results: paper PMC10041561 (JID Innovations, 2022)

What was measured:
PTGS2 (COX-2) = target: T1, PTGS2 (COX-2) (Homo sapiens, UniProt P35354); test: PTGS2; type: biochemical, bovine/human; conditions: COX-2 Inhibition Mean IC50, mean of replicates 1-2 (Fig 16g)
T1 sequence (P35354 18-604): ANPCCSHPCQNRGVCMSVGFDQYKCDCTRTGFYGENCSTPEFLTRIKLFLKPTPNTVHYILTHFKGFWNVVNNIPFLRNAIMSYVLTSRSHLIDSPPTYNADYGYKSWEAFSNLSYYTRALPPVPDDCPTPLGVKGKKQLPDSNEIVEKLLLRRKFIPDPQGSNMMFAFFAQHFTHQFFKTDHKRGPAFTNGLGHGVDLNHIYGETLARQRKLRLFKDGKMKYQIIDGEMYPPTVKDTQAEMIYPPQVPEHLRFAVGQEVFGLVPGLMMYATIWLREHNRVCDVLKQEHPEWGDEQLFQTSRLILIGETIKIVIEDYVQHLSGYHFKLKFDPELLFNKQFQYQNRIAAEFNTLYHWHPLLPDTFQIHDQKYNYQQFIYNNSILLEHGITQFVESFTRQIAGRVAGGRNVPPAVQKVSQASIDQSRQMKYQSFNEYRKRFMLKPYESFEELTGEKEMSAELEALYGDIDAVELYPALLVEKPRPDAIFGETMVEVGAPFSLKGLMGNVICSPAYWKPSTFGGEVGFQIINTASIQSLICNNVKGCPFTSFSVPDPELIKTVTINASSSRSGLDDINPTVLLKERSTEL

[1] = test system: reconstituted human epidermis (RHE) tissues; test: Cortisol in RHE-conditioned medium; type: cell-based; conditions: 48 hours, with or without cell viability standardization
[2] = test system: reconstituted human epidermis (RHE) tissues; test: IL-8 levels in RHE-conditioned medium; type: cell-based; conditions: 48 hours
[3] = test system: TNF-stimulated neonatal human epidermal KCs; test: Microarray gene expression in TNF-stimulated keratinocytes; type: cell-based
CB1 receptor = conditions: ref Vučković et al., 2018; cited from earlier work
CB2 receptor = conditions: ref Vučković et al., 2018; cited from earlier work
[4] = ref Nelson et al., 2020; cited from earlier work
[5] = ref Jaidee et al., 2021; cited from earlier work

Row | IC50 (PTGS2 (COX-2)) [µM] | SMILES | cortisol levels in RHE-conditioned medium [1] | IL-8 levels in RHE-conditioned medium [2] | average increase in the expression of unhealthy skin signature genes ([3]; TNF-stimulated KCs) [%] | number of genes decreased ([3]; vs TNF, FDR < 0.10 with FC < 0.80) [genes] | number of genes increased ([3]; vs TNF, FDR < 0.10 with FC > 1.25) [genes] | number of genes with altered expression ([3]; vs TNF, FDR < 0.10 with FC > 1.25 or FC < 0.80) [genes] | affinity for the CB1 receptor (CB1 receptor) | affinity for the CB2 receptor (CB2 receptor) | octanol-water partition coefficient [4] | stability at room temperature [5]
1 | 12.9 | C=C[C@@](C)(/C=C/c1ccc(O)cc1)CCC=C(C)C [BAK, bakuchiol] | significantly decreased cortisol levels | decreased IL-8 | – | – | – | – | – | – | – | –
2 | – | C=C(C)[C@@H]1CCC(C)=C[C@H]1c1c(O)cc(CCCCC)cc1O [CBD, cannabidiol] | not observed | – | 5 | 114 | 205 | 319 | little affinity | little affinity | high | unstable at room temperature
